Results from the supplement of paper PMC10307832.

Legend:
Test in all cases: relative viability (nuclei count vs DMSO), 5 days (fraction); higher = more cells survive
[1] = compound: CC1=CN2C(=O)C=C(N=C2C(=C1)C(C)NC3=CC=CC=C3)N4CCOCC4 [TGX 221] + COc1cc2c(Oc3ccc(NC(=O)C4(C(=O)Nc5ccc(F)cc5)CC4)cc3F)ccnc2cc1OCCCN1CCOCC1 [Foretinib] (partner 0.25 µM)
Outline: (§1)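 For relative viability, nuclei counts in treated wells were divided by those in vehicle wells. Lung cancer cell lines had been pin-tool dosed in 1536-well plates the day after seeding and cultured for 5 days, then fixed and stained in one step (final 0.05% Triton X-100, 1% formaldehyde, 1 ug/ml Hoechst) and imaged at 4×. Doses were one drug alone or a fixed anchor-drug dose plus five library-drug doses (not always all listed) in √10 steps, and values are duplicate-plate medians.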

[2] = compound: CC1=CN2C(=O)C=C(N=C2C(=C1)C(C)NC3=CC=CC=C3)N4CCOCC4 [TGX 221] + Nc1ncn([C@H]2C[C@H](O)[C@@H](CO)O2)c(=O)n1 [Decitabine] (partner 2 µM)
Outline: as §1

[3] = compound: O=C(CCCCCCNC(=O)c1cnc(N(c2ccccc2)c2ccccc2)nc1)NO [Ricolinostat] + Cc1nc(NC(=O)N2CCC[C@H]2C(N)=O)sc1-c1ccnc(C(C)(C)C(F)(F)F)c1 [Alpelisib] (partner 2 µM)
Outline: as §1

[4] = compound: C1=CC=C(C(=C1)C2=CC=C(C=C2)C3=CSC4=C3C(=C(C(=O)N4)C#N)O)O + C[C@]1(O)C[C@@H](c2nc(-c3ccc4ccc(-c5ccccc5)nc4c3)c3c(N)nccn32)C1 [Linsitinib] (partner 1 µM)
Outline: as §1

Row | Cell Line | relative viability ([1]; first compound 0.08 µM) | relative viability ([1]; first compound 0.253 µM) | relative viability ([1]; first compound 0.8 µM) | relative viability ([1]; first compound 2.53 µM) | relative viability ([1]; first compound 8 µM) | relative viability ([2]; first compound 0.08 µM) | relative viability ([2]; first compound 0.253 µM) | relative viability ([2]; first compound 0.8 µM) | relative viability ([2]; first compound 2.53 µM) | relative viability ([2]; first compound 8 µM) | relative viability ([3]; first compound 0.08 µM) | relative viability ([3]; first compound 0.253 µM) | relative viability ([3]; first compound 0.8 µM) | relative viability ([3]; first compound 2.53 µM) | relative viability ([4]; first compound 0.08 µM) | relative viability ([4]; first compound 0.253 µM) | relative viability ([4]; first compound 0.8 µM) | relative viability ([4]; first compound 2.53 µM) | relative viability ([4]; first compound 8 µM)
1 | NCI-H2126 | 1.19 | 1.11 | 1 | 1.05 | 1.05 | 0.568 | 0.567 | 0.633 | 0.55 | 0.554 | 0.578 | 0.707 | 0.716 | 0.628 | 0.71 | 0.721 | 0.699 | 0.678 | 0.704
2 | NCI-H2347 |  | 0.879 | 0.769 | 0.622 | 0.49 | 0.564 | 0.504 | 0.582 | 0.558 | 0.597 | 0.889 | 1.01 | 0.987 | 0.963 | 0.993 | 1.13 | 0.961 | 0.99 | 0.844
3 | NCI-H2405 | 1.01 | 0.99 | 1.04 | 0.897 | 0.863 | 0.72 | 0.729 | 0.75 | 0.68 | 0.615 | 0.524 | 0.805 | 0.889 | 1.08 | 0.972 | 1.05 | 0.956 | 0.831 | 0.848
4 | NCI-H3122 | 0.967 | 0.931 | 0.957 | 0.949 | 1.01 | 0.405 | 0.33 | 0.422 | 0.378 | 0.548 | 0.514 | 0.942 | 0.785 | 0.964 | 1.1 | 1.07 | 1.06 | 1.05 | 1.02
5 | PC-3 [JPC-3] | 1 | 1.03 | 1.05 | 0.947 | 0.972 | 0.749 | 0.802 | 0.826 | 0.815 | 0.898 | 0.941 | 0.996 | 0.948 | 0.909 | 1.1 | 1.06 | 0.989 | 0.952 | 1.09
6 | PC-14 | 1.04 | 0.953 | 0.934 | 1.06 | 0.858 | 0.206 | 0.203 | 0.228 | 0.281 | 0.207 | 0.821 | 0.903 | 0.917 | 0.66 | 0.93 | 1.12 | 0.978 | 1.09 | 0.745
7 | RERF-LC-KJ | 0.87 | 0.879 | 0.964 | 0.825 | 0.757 | 0.632 | 0.75 | 0.762 | 0.692 | 0.678 | 0.668 | 0.972 | 0.754 | 0.766 | 0.93 | 1.03 | 0.877 | 0.911 | 0.831
8 | SK-LU-1 | 0.808 | 0.703 | 0.768 | 0.63 | 0.657 | 0.612 | 0.626 | 0.522 | 0.588 | 0.626 | 0.947 | 0.914 | 0.84 | 0.708 | 1.31 | 1.11 | 1.16 | 1.19 | 1.15
9 | SK-MES-1 | 0.994 | 0.733 | 0.863 | 0.75 | 0.558 | 0.397 | 0.365 | 0.373 | 0.395 | 0.36 | 0.541 | 0.761 | 0.805 | 0.591 | 1.18 | 1.17 | 0.952 | 1.03 | 0.987
10 | SW 1573 | 0.889 | 0.881 | 0.975 | 0.822 | 0.851 | 0.457 | 0.387 | 0.535 | 0.517 | 0.524 | 0.506 | 0.862 | 0.751 | 0.832 | 0.812 | 0.875 | 0.951 | 0.834 | 0.721
11 | UMC-11 | 0.934 | 0.932 | 1 | 1.06 | 1.03 | 0.522 | 0.545 | 0.725 | 0.572 | 0.62 | 0.882 | 1.09 | 0.961 | 0.856 | 0.834 | 0.738 | 1.11 | 1.24 | 0.875
